From PubChem BioAssay (NCI)
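Results reflect a 48-hour exposure of cells in 96-well plates to compound at five concentrations. GI50 is the concentration that inhibits growth by half. TGI: concentration producing complete growth inhibition.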

Assays:
Assay in all cases: NCI anticancer screen, dose series, 48 h
MOLT-4 leukemia = tested on: MOLT-4 leukemia
M14 melanoma = tested on: M14 melanoma
HOP-62 NSCLC = tested on: HOP-62 NSCLC
DU-145 prostate = tested on: DU-145 prostate
OVCAR-8 ovarian = tested on: OVCAR-8 ovarian
ACHN renal = tested on: ACHN renal
CAKI-1 renal = tested on: CAKI-1 renal
OVCAR-4 ovarian = tested on: OVCAR-4 ovarian
TK-10 renal = tested on: TK-10 renal
MALME-3M melanoma = tested on: MALME-3M melanoma
A498 renal = tested on: A498 renal
SNB-19 CNS = tested on: SNB-19 CNS
T-47D breast = tested on: T-47D breast
786-0 renal = tested on: 786-0 renal
KM12 colon = tested on: KM12 colon
SK-MEL-2 melanoma = tested on: SK-MEL-2 melanoma
HT29 colon = tested on: HT29 colon
BT-549 breast = tested on: BT-549 breast
EKVX NSCLC = tested on: EKVX NSCLC
NCI-H23 lung = tested on: NCI-H23 lung
SW-620 colon = tested on: SW-620 colon
SF-268 CNS = tested on: SF-268 CNS
CCRF-CEM leukemia = tested on: CCRF-CEM leukemia
MDA-MB-231 breast = tested on: MDA-MB-231 breast
IGROV1 ovarian = tested on: IGROV1 ovarian
PC-3 prostate = tested on: PC-3 prostate
HCT-116 colon = tested on: HCT-116 colon
SF-295 CNS = tested on: SF-295 CNS
SR leukemia = tested on: SR leukemia

CN(C)CCCOc1c2ccc(Cl)cc2nc2c1oc1ccc(Cl)cc12
GI50 (MOLT-4 leukemia): 1.23 µM
TGI (MOLT-4 leukemia): 6.58 µM
GI50 (M14 melanoma): 3.15 µM
TGI (M14 melanoma): 9.37 µM
GI50 (HOP-62 NSCLC): 3.21 µM
TGI (HOP-62 NSCLC): 22 µM
GI50 (DU-145 prostate): 4.21 µM
TGI (DU-145 prostate): 14.4 µM
GI50 (OVCAR-8 ovarian): 1.49 µM
TGI (OVCAR-8 ovarian): 6.04 µM
GI50 (ACHN renal): 2.51 µM
TGI (ACHN renal): 13.2 µM
GI50 (CAKI-1 renal): 1.39 µM
TGI (CAKI-1 renal): 5.96 µM
GI50 (OVCAR-4 ovarian): 2.1 µM
TGI (OVCAR-4 ovarian): 6.4 µM
GI50 (TK-10 renal): 6.62 µM
TGI (TK-10 renal): 21.1 µM
GI50 (MALME-3M melanoma): 3.24 µM
TGI (MALME-3M melanoma): 16.2 µM
GI50 (A498 renal): 6.44 µM
TGI (A498 renal): 27.7 µM
GI50 (SNB-19 CNS): 1.89 µM
TGI (SNB-19 CNS): 6.61 µM
GI50 (T-47D breast): 12.7 µM
TGI (T-47D breast): > 59.1 µM
GI50 (786-0 renal): 4.12 µM
TGI (786-0 renal): 16.1 µM
GI50 (KM12 colon): 2.22 µM
TGI (KM12 colon): 7.52 µM
GI50 (SK-MEL-2 melanoma): 4.66 µM
TGI (SK-MEL-2 melanoma): 12.4 µM
GI50 (HT29 colon): 1.22 µM
TGI (HT29 colon): 5.15 µM
GI50 (BT-549 breast): 7.26 µM
TGI (BT-549 breast): > 30.5 µM
GI50 (EKVX NSCLC): 2.46 µM
TGI (EKVX NSCLC): 7.3 µM
GI50 (NCI-H23 lung): 3.43 µM
TGI (NCI-H23 lung): 15.6 µM
GI50 (SW-620 colon): 0.9 µM
TGI (SW-620 colon): 4.36 µM
GI50 (SF-268 CNS): 4.85 µM
TGI (SF-268 CNS): 21.8 µM
GI50 (CCRF-CEM leukemia): 2.18 µM
TGI (CCRF-CEM leukemia): 14.1 µM
GI50 (MDA-MB-231 breast): 1.92 µM
TGI (MDA-MB-231 breast): 6.5 µM
GI50 (IGROV1 ovarian): 2.34 µM
TGI (IGROV1 ovarian): 12.5 µM
GI50 (PC-3 prostate): 1.69 µM
TGI (PC-3 prostate): 9.2 µM
GI50 (HCT-116 colon): 3.73 µM
TGI (HCT-116 colon): 23.6 µM
GI50 (SF-295 CNS): 2.12 µM
TGI (SF-295 CNS): 6.44 µM
GI50 (SR leukemia): 1.18 µM
TGI (SR leukemia): 5.33 µM
